Patent publication US8093288B2, “Genipin derivatives and uses thereof” (Beth Israel Deaconess Medical Center, priority 2003, dated 2012)

Tests used:
[1] = system: kidney mitochondria of UCP2 knockout mice; assay: Proton leak titration in isolated kidney mitochondria of UCP2 knockout mice with superoxide-generating system; format: biochemical; settings: 50 μM genipin with 50 mM xanthine and 0.2 mU/3.5 mL xanthine oxidase, FIG. 3
Procedure: FIG. 3 is a graph showing the effect of genipin on superoxide-activated, UCP2-dependent proton leak in isolated kidney mitochondria of UCP2 knockout mice. Proton leak titration was performed in the presence of a superoxide-generating system (xanthine plus xanthine oxidase) essentially as described (Echtay et al. 2002, Nature 415, 96-99). Graphs show the rate of proton leak as a function of its driving force, mitochondrial membrane potential. ♦, control; ▪, xanthine (50 mM) plus xanthine oxidase (0.2mU/3.5 ml). Δ, xanthine/xanthine oxidase plus 50 μM genipin. Mitochondria were incubated with genipin in the oxygen electrode for 5 minutes before xanthine oxidase was added (to initiate the generation of superoxide). Western-blot analysis confirmed that there was no UCP2 protein in mitochondria from UCP2 knockout mice. Data are means +/−S.E.M. of four independent experiments.
Wildtype and UCP2 knockout mice were used for isolation of kidney mitochondria. Fresh tissues were minced in ice-cold STE buffer (250 mM sucrose, 5 mM Tris, 2 mM EGTA, pH 7.4 at 4° C.), and disrupted in a Dounce homogenizer. Cell debris was removed by centrifugation of the homogenate at 500×g for 3 min. The supernatant was centrifuged at 10,000×g for 8 min., and the mitochondrial pellet was resuspended in ice-cold STE buffer. Mitochondria were subjected to another cycle of centrifugation at 750 and 10,000×g. […]

UCP2 KO mice = assay: Serum insulin in vivo after genipin injection in UCP2 KO mice; settings: genipin 10 mg/kg injected, FIGS. 13A, 13B
Procedure: (§1) UCP2-deficient mice have increased serum insulin levels. Genipin inhibits UCP2 activity, and thus should stimulate insulin secretion acutely in vivo. In the present study, the effect of genipin on insulin secretion in vivo was assessed. WT and UCP2 KO mice were fed a chow diet (FIG. 13A), or placed on a high fat diet (HFD) (FIG. 13B) (#D12331, obtained from Research Diets Inc., New Brunswick, N.J.). The fat source was coconut oil and comprised 58% of the total calories. The mice remained on the HFD for 24 weeks. Both WT and KO mice were obese (50-60 g). ob/ob mice (FIG. 13C) were obtained from The Jackson Laboratory. After 6 hours (FIG. 13A) or 20 hours (FIGS. 13B and 13C) of fasting, genipin (10 mg/kg (FIGS. 13A and 13B), or 20 mg/kg (FIG. 13C)) was injected into the mice. Serum insulin levels were measured before and after administration of genipin as indicated.

[2] = system: pancreatic islets from wildtype mice; assay: Insulin secretion in isolated pancreatic islets from wildtype mice; format: cell-based; settings: 5.5 mM glucose; 50 nM, 0.5 μM and 5 μM genipin; 37° C. for 60 min; WT islets; FIG. 4 / FIG. 11B
Procedure: As used or herein, pancreatic islets from wildtype and UCP2 knockout mice were isolated according to a method used for rats (Cawthorn and Chan, Mol. Cell. Endocrinol. 1991, 75:197-204, the entire teachings of which are incorporated herein by reference), except that the total exposure to type XI collagenase (Worthington Biochemical Co., NJ) was 30 min. and the Ficoll gradient was altered to layers of 25%, 23%, 21%, and 11%. Islets were harvested from the 11%-21% interface.
Islets were cultured in RPMI medium containing 11.0 mM glucose and supplemented with 1% penicillin-streptomycin. 7.5% fetal bovine serum (all from Gibco/BRL, Burlington, ON), and 10 mM Hepes (Sigma). After culturing for 20-24 hr, the islets were transferred to microcentrifuge tubes, pelleted (800 g for 5 min), and the medium aspirated and replaced with 1.0 mL DME medium containing 1% gelatin and 5.5 mM glucose with no genipin (control), 50 nM genipin, 0.5 μM genipin, and 5 μM genipin. For insulin secretion studies, the three islets were incubated per tube. After incubation at 37° C. for 60 min., the islets were centrifuged. The supernatant was collected and stored at −80° C., and then later assayed for insulin using Rat Insulin ELISA Kit (Cat. No. INSKR020, Crystal Chem., Inc., Chicago, Ill.).
FIGS. 11B and 11C show their effects on insulin secretion. Pancreatic islets were isolated from WT or UCP2 knockout (KO) mice. […]

[3] = system: WT mice on chow diet, WT mice on high fat diet, ob/ob mice; assay: Serum insulin in vivo after genipin injection in WT (chow, HFD) and ob/ob mice; settings: WT chow (6 hours fasting, 10 mg/kg), WT HFD (20 hours fasting, 10 mg/kg), ob/ob (20 hours fasting, 20 mg/kg); injected; FIGS. 13A-C
Procedure: as §1

`COC(=O)C1=CO[C@@H](O)[C@@H]2C(CO)=CC[C@H]12` [genipin] was tested, and the “rate of proton leak as a function of mitochondrial membrane potential” value [1] was “proton leak occurred at approximately the same membrane potential as that observed for kidney mitochondria from UCP2 knockout mice exposed to the superoxide-generating system alone”, the serum insulin levels (UCP2 KO mice) was “no effect on insulin levels” and the insulin secretion [2] was “increases insulin secretion in a dose-dependent manner”. For the same molecule, the serum insulin levels [3] was “can increase insulin levels in all three animal models”.
